# Assays:
# [1] = system: H2O2 in guard cells; assay: Detection and quantification of H2O2 (H2DCFDA fluorescence); format: cell-based, Arabidopsis thaliana; conditions: 10 μM, leaf epidermal tissue, after 30 min
# Method: Detection and Quantification of H2O2 and NO: Col-0 plants were grown on soil for 2 to 4 weeks under continuous light at 21° C. Plants were placed in the dark for 24 h to ensure closure and then transferred to the light for 1 h. After 1 h in the light, mature basal leaves were excised and blended in a Waring blender on the low setting for approximately 10 s to isolate epidermal tissues, and the tissues were placed in 3 mL of 30 mM KCl, 10 mM Mes-KOH, pH 6.16 buffer in light for 2 h (Pei et al., 2000; Murata et al., 2001). DAF-2 DA and H2DCFDA were dissolved in DMSO to produce 5 mM and 10 mM stock solutions, respectively, and these were stored at −20° C. in 30 μL, aliquots. Fifty μM H2DCFDA or 15 μM DAF-2 DA was added to the medium in the dark, and after 30 min, 10 μM ABA, 200 μM ATPγS, or buffer (ATP control) was also added to the medium in the dark for 30 min. Peels were then rinsed by decanting the treatment solution and adding 3 mL fresh leaf buffer to the peels. Peels were rinsed twice as described. A peel from each of the three treatments (ABA, ATPγS and buffer) were placed on the same microscope slide and observed sequentially. A second study was staggered 30 to 45 min after the first by loading the H2DCFDA or DAF-2 DA dye to new peels 30 to 45 min after the first round of dye was added. Confocal laser scanning microscopy (CLSM) was performed with a Leica SP2 AOBS confocal microscope (Leica Microsystems, Bannockburn, Ill., USA). Laser power was set at 15%, with an excitation of 488 nm and an emission of 525 nm. A series of 0.5 μm optical sections with average intensity projection along the z axis were collected and made into one 2D image with greater focal depth. All images were obtained with the same software scanning settings including detector gain and laser intensity settings.
# [2] = system: guard cells of x-luc1 and x-luc9 ecto-luciferase lines; assay: Ecto-luciferase luminescence imaging of extracellular ATP in epidermal peels; format: cell-based, Arabidopsis thaliana; conditions: 10 μM
# Source text: Ecto-luciferase Construct and Plant Transformation: The nucleotide sequence for the 24 amino acid, cleavable signal peptide from the Brassica pollen coat protein, S-locus cysteine-rich protein (SCR13; AF195626) was used to target luciferase for secretion (Schopfer et al., 1999). The signal peptide was incorporated at the N-terminus of the luciferase gene by PCR and the SCR13 signal peptide modified luciferase PCR product was then ligated into the binary vector pLBJ21. This construct was then transformed into Agrobacterium tumefaciens strain GV3101 (pMP90) and then transformed into Arabidopsis plants (Col-0) using the floral dipping method (Clough and Bent, 1998). Transgenic plants were selected by planting on solidified Murashige and Skoog (MS) medium (4.3 g/L Murashige and Skoog salts (Sigma), 0.5% (w/v) MES, and 1.0% (w/v) agar, raised to pH 5.7 with 5 M KOH) containing 50 μg/mL kanamycin. Segregation of T3 generation on kanamycin plates was analysed in order to obtain homozygous lines. Plants showing kanamycin resistance were checked for luciferase activity by growing transgenic plants in MS medium for 10 days and then transferring the whole seedlings into test tubes. Luminescence measurements were performed by placing the test tubes in the light-tight housing of the luminometer reader (Dynatech). Experimental solutions with luciferin substrate with and without 1 mM ATP were injected by an automatic injector, and after 3 seconds counting started at 0.2 second time intervals.
# Imaging of Luminescence in Ecto-luciferase Plants: Ecto-luciferase seeds were surface-sterilized, stratified in the dark in 4° C. for at least three days and then planted directly on a cellophane membrane placed upon solidified MS with 1.0% (w/v) agar. Planted plates were placed upright in a culture chamber and grown at 23° C. under 24-h fluorescent light for 7 days. Plates were then reoriented so that the solidified MS medium was at the bottom of the plate and the seedling was able to grow up into the empty space of the petri dish. Seedlings were then allowed to mature for up to 4 weeks under identical temperature and light settings. For “dark” studies petri dishes of 3-4 week old plants were placed in a dark chamber for 24 hours prior to use in the studies.
# Mature basal leaves were excised from x-luc1 and x-luc9 plants 3-4 weeks old. Peels were taken and then immediately floated with the abaxial side up in 40 μL, of Arabidopsis leaf buffer on a microscope slide and the chemical being tested in either light or dark conditions depending on the experimental setup. The placing of the peels within their respective solution was considered time zero. Peels were treated for a minimum of 5 minutes before luciferin and flash buffer were added to the solution. […] Luminescence was integrated over 120 seconds, High Gain, Read Out set to slow, using 4×4 pixel binning with Cosmic Suppression on, Background Correction off, and Flatfield Correction off with the filter set to Photo.
# All luminescence analysis was conducted using the indiGO Analysis Software (version 2.0.0.26). All images consisted of a photographic image in grayscale with an overlaid luminescence image in pseudo color. […]
smiles,measurement,setting,value
"CC1=CC(=O)CC(C)(C)[C@@]1(O)/C=C/C(C)=C\C(=O)O [ABA, abscisic acid]",increase in H2DCFDA fluorescence in guard cells,[1],3 fold
same,"ecto-luciferase luminescence in the location of stomata, average","[2]; 5 min, x-luc9 peels, open stomata, light",3.57 cps
same,ecto-luciferase luminescence after return to control levels,[2]; after 15 min of continuous exposure,about 0.80 cps
